# Experimental data from patent US9737493B2, “Compositions and methods for modulating DNMT1 inhibitor activity” (University of Louisville Research Foundation, Inc., priority 2012, dated 2017).
# Legend:
# MDA-MB-231 cells = assay: MTT cell proliferation assay; assay type: cell-based; conditions: Homo sapiens, MDA-MB-231, 72 h
# Protocol: (§1) Cell Proliferation Assays. The antiproliferative activity of XB05 was tested using a previously published 3-(4,5-dimethylthiazol-2-yl)-2,5-diphenyltetrazolium bromide (MTT) assay protocol (Girvan et al., “AGRO100 inhibits activation of nuclear factor-kappaB (NF-kappaB) by forming a complex with NF-kappaB essential modulator (NEMO) and nucleolin” Molecular Cancer Therapeutics (2006) Vol. 5, No. 7, pp. 1790-1799). Briefly, cells were seeded in quadruplicate wells in 96-well plates and allowed to adhere overnight. […] Plates were incubated with XB05 for 72 h, during which the cell culture medium was not changed. Cell viability was determined and the background corresponding to medium alone (no cells) was subtracted. Data were analyzed as described in the Brief Description of the Drawings.
# (§2) XB05 has Cancer-Selective Antiproliferative Activity. XB05 was tested to determine its antiproliferative activity in a variety of human cell lines that are derived from malignant tissues or from non-malignant (immortalized but not transformed) cells and listed in FIG. 1B. As described in Materials and Methods, cells were treated with varying concentrations of XB05 for 72 h and evaluated using the MTT cell proliferation assay.
# [1] = test system: A549 non-small cell lung cancer cells; assay: MTT cell proliferation assay; assay type: cell-based, human; conditions: A549, MTT 72 h
# Protocol: as §1, §2
# [2] = test system: Hs27 non-malignant skin fibroblasts; assay: MTT cell proliferation assay; assay type: cell-based, human; conditions: Hs27, MTT 72 h
# Protocol: as §1, §2
# [3] = test system: U937 myeloid leukemia cells; assay: MTT cell proliferation assay; assay type: cell-based, human
# Protocol: as §1, §2
# A549 cells [4] = assay: Trypan blue exclusion assay; assay type: cell-based, human; conditions: A549, 2 μM, 72 h
# Protocol: (§3) FIG. 3: XB05 Induces Apoptotic and Nonapoptotic Cell Death in Malignant Cell Lines. (A) Trypan blue exclusion assay for three human cell lines following treatment with XB05 for 72 h at the concentrations indicated. Data points represent the mean+/−SEM for three independent experiments. (B) Representative phase contrast microscopy images of cells treated with vehicle (72 h), XB05 (72 h with 1 μM for U937 and Hs27, or 2 μM for A549), or 6 μg/mL camptothecin (U937 for 6 h, A549 and Hs27 for 48 h). Cells undergoing apoptotic (black arrows) or non-apoptotic (white arrows) cell death are indicated. (C) Whole cell extracts from cells treated with vehicle, camptothecin, or XB05, as described in part B were western blotted for biochemical markers of apoptosis and GAPDH (loading control). Apoptosis is indicated by cleavage of full-length PARP-1 (116 kDa) to an 89 kDa fragment, and by appearance of bands (17 kDa, 19 kDa) recognized by an antibody specific to cleaved (activated) forms of caspase-3. (D) Flow cytometric analysis of annexin V-FITC/propidium Iodide (PI) staining for malignant cells treated with vehicle, camptothecin or XB05 as described in part B, in the presence or absence of the pan-caspase inhibitor Z-VAD-fmk (100 μM).
# (§4) After 72 h, cells were trypsinized (in the case of adherent cells), stained with trypan blue solution (0.4%) (BioRad, Hercules Calif.) and cell number and percent viability determined on a TC10 automated cell counter (BioRad) using triplicate measurements for each sample. Phase contrast microscopy images were obtained on an EVOSfI digital inverted microscope (Advanced Microscopy Group, Bothell, Wash.).
# Hs27 cells [5] = assay: Trypan blue exclusion assay; assay type: cell-based, human; conditions: Hs27, 72 h
# Protocol: as §3, §4
# U937 cells [6] = assay: Trypan blue exclusion assay; assay type: cell-based, human; conditions: U937, 1 μM, 72 h
# Protocol: as §3, §4
# A549 cells [7] = assay: Alkaline comet assay; assay type: cell-based, human; conditions: A549, 72 h
# Protocol: (§5) FIG. 11: XB05 Induces DNA Damage in Malignant Cells. (A) Alkaline comet assays for detection of DNA damage for cells treated as indicated for 72 h. TBHP was a positive control for oxidative DNA damage. Decreased DNA fluorescence in nucleoid comet heads (arrows) and increased smearing of DNA into comet tails (asterisks) is indicated. Scale bar, 400 μm. Data shown are representative of at least two individual experiments for each cell line. (B) Western blot analysis for γ-H2AX and GAPDH (loading control) in whole cell extracts from cells treated with vehicle, UV irradiation (800 μJ, positive control for DSBs), or XB05 (1 μM for U937, 2 μM for A549) after 24 h. Images shown are representative of three individual experiments in each cell line. (C) Flow cytometric detection of γ-H2AX in cells treated as described in part B. Bar graph represents mean+/−SEM for 3 individual experiments in each cell line. Statistical comparison indicated significant differences between vehicle and XB05-treated groups in both cell lines (*p≦0.05).
# (§6) Comet Assays. Cells were washed once with ice cold PBS, harvested as described and re-suspended at 1×10^5 cells/mL in PBS. As a positive control, cells were incubated with 100 μM tert-butyl hydrogen peroxide (TBHP) for 30 mins (U937, A549) or 1 h (Hs27) at 4° C. prior to harvesting. Comet assays were performed using the CometAssay Kit (Trevigen, Gaithersburg, Md.) according to the manufacturer's instructions. Cells were visualized and digital images captured on an EVOSfI Digital Fluorescent Microscope equipped with a fluorescein light cube.
# Hs27 cells [8] = assay: Alkaline comet assay; assay type: cell-based, human; conditions: Hs27, 72 h
# Protocol: as §5, §6
# U937 cells [9] = assay: Alkaline comet assay; assay type: cell-based, human; conditions: U937, 72 h
# Protocol: as §5, §6
smiles,measurement,setting,value
CCCCCC(O)C#CC(F)(F)Br (centres unmarked) [XB05],GI50,MDA-MB-231 cells,< 500 nM
same,sensitivity to XB05,[1],moderate sensitivity
same,sensitivity to XB05,[2],low sensitivity
same,GI50,"[3]; Homo sapiens, U-937, U937, 72 h",< 500 nM
same,sensitivity to XB05,"[3]; U937, MTT 72 h",high sensitivity
same,cell death (trypan blue exclusion),A549 cells [4],modest cell death
same,cell death (trypan blue exclusion),Hs27 cells [5],lowest levels of cell death
same,cell death (trypan blue exclusion),U937 cells [6],robust cell death
same,DNA damage (comet tails),A549 cells [7],comet tails
same,DNA damage (comet tails),Hs27 cells [8],no evidence of DNA damage
same,DNA damage (comet tails),U937 cells [9],comet tails
